Several values for one entry are separate records, joined by “and”; a condition that tells them apart may be missing. Identical values can stand only once. Inconclusive results and toxic doses are left out. The calls were made as follows: active = survival T/C of 150% or more; inactive = T/C below 125% in these data.
Test system: P388 leukemia ip, CD2F1 mice, survival T/C
Test: NCI In Vivo Anticancer Drug Screen. Data for tumor model P388 Leukemia (intraperitoneal) in CD2F1 (CDF1) mice
Conditions: endpoint: median survival time, higher = longer survival
Outline: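 Mice carrying the transplanted tumor received test compound or vehicle. Survival was recorded in each group, and the value is the treated-group measurement divided by that of the vehicle-treated control group.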

[1] = dose: 100.0 mg/kg/injection, schedule: Q04DX002 (ip), vehicle: saline with Tween-80
[2] = dose: 200.0 mg/kg/injection, schedule: Q04DX002 (ip), vehicle: saline with Tween-80
[3] = dose: 25.0 mg/kg/injection, schedule: Q01DX009 (ip), vehicle: saline
[4] = dose: 60.0 mg/kg/injection, schedule: Q01DX005 (ip), vehicle: saline
[5] = dose: 120.0 mg/kg/injection, schedule: Q01DX005 (ip), vehicle: saline
[6] = dose: 240.0 mg/kg/injection, schedule: Q01DX005 (ip), vehicle: saline
[7] = dose: 50.0 mg/kg/injection, schedule: Q01DX009 (ip), vehicle: Klucel (hydroxypropylcellulose) (HPC)
[8] = dose: 100.0 mg/kg/injection, schedule: Q01DX009 (ip), vehicle: Klucel (hydroxypropylcellulose) (HPC)
[9] = dose: 200.0 mg/kg/injection, schedule: Q01DX009 (ip), vehicle: Klucel (hydroxypropylcellulose) (HPC)
[10] = dose: 5.0 mg/kg/injection, schedule: Q01DX009 (ip), vehicle: saline
[11] = dose: 10.0 mg/kg/injection, schedule: Q01DX009 (ip), vehicle: saline
[12] = dose: 60.0 mg/kg/injection, schedule: Q01DX005 (ip), vehicle: saline with Tween-80
[13] = dose: 50.0 mg/kg/injection, schedule: Q01DX009 (ip), vehicle: saline with Tween-80
[14] = dose: 100.0 mg/kg/injection, schedule: Q01DX009 (ip), vehicle: saline with Tween-80
[15] = dose: 200.0 mg/kg/injection, schedule: Q01DX009 (ip), vehicle: saline with Tween-80

Measured: T/C

COC(=O)C1C(C2OC3OC(C)(C)OC3C3OC(C)(C)OC32)N1C(=O)Cl (centres undefined)
inactive: [1] 102 % of control | [2] 103 % of control

CCN(CC)CCOC(=O)Cc1cccc2c(=O)cc(-c3ccccc3)oc12
inactive: dose: 12.5 mg/kg/injection, schedule: Q01DX009 (ip), vehicle: saline 120 % of control | [3] 108 % of control and 97 % of control | dose: 50.0 mg/kg/injection, schedule: Q01DX005 (ip), vehicle: saline 100 % of control | dose: 100.0 mg/kg/injection, schedule: Q01DX001 (ip), vehicle: saline 102 % of control | dose: 100.0 mg/kg/injection, schedule: Q01DX005 (ip), vehicle: saline 108 % of control | dose: 100.0 mg/kg/injection, schedule: Q04DX002 (ip), vehicle: saline 107 % of control | dose: 100.0 mg/kg/injection, schedule: Q04DX003 (ip), vehicle: saline 107 % of control | dose: 100.0 mg/kg/injection, schedule: Q08DX002 (ip), vehicle: saline 111 % of control | dose: 200.0 mg/kg/injection, schedule: Q01DX001 (ip), vehicle: saline 114 % of control | dose: 200.0 mg/kg/injection, schedule: Q04DX002 (ip), vehicle: saline 110 % of control | dose: 200.0 mg/kg/injection, schedule: Q08DX002 (ip), vehicle: saline 117 % of control | dose: 300.0 mg/kg/injection, schedule: Q01DX001 (ip), vehicle: saline 117 % of control | dose: 300.0 mg/kg/injection, schedule: Q04DX002 (ip), vehicle: saline 114 % of control | dose: 300.0 mg/kg/injection, schedule: Q08DX002 (ip), vehicle: saline 112 % of control | dose: 400.0 mg/kg/injection, schedule: Q01DX001 (ip), vehicle: saline 116 % of control

Cc1c(C(=O)O)no[n+]1[O-]
inactive: [4] 101 % of control | [5] 93 % of control | [6] 93 % of control

CCn1c(O)c(N=NC(=S)SCc2ccccc2)c2ccccc21
inactive: dose: 1.56 mg/kg/injection, schedule: Q01DX009 (ip), vehicle: suspension in saline 97 % of control | dose: 3.12 mg/kg/injection, schedule: Q01DX009 (ip), vehicle: suspension in saline 101 % of control | dose: 6.25 mg/kg/injection, schedule: Q01DX009 (ip), vehicle: suspension in saline 87 % of control and 97 % of control | [3] 94 % of control

CCN(CC)CCO/N=C1\CC(c2ccc(OC)c(OC)c2)Oc2ccccc21 (centres undefined)
inactive: dose: 15.0 mg/kg/injection, schedule: Q01DX005 (ip), vehicle: saline 100 % of control | dose: 30.0 mg/kg/injection, schedule: Q01DX005 (ip), vehicle: saline 114 % of control | [4] 100 % of control and 105 % of control

CC1(C)O[S+](c2ccccc2)c2ccccc21 (centres undefined)
inactive: [7] 102 % of control | [8] 107 % of control | [9] 108 % of control

COc1cc(-c2nn(CN3CCN(Cn4nc(-c5cc(OC)c(OC)c(OC)c5)oc4=S)CC3)c(=S)o2)cc(OC)c1OC
inactive: dose: 50.0 mg/kg/injection, schedule: Q01DX005 (ip), vehicle: Klucel (hydroxypropylcellulose) (HPC) 97 % of control | dose: 100.0 mg/kg/injection, schedule: Q01DX005 (ip), vehicle: Klucel (hydroxypropylcellulose) (HPC) 87 % of control | dose: 200.0 mg/kg/injection, schedule: Q01DX005 (ip), vehicle: Klucel (hydroxypropylcellulose) (HPC) 93 % of control

C=C1CC/C=C(/C)C(=O)C(OC(C)=O)C2C1CC2(C)C (centres undefined)
inactive: dose: 1.75 mg/kg/injection, schedule: Q01DX009 (ip), vehicle: saline + Tween-80 + alcohol 105 % of control | dose: 1.75 mg/kg/injection, schedule: Q01DX009 (ip), vehicle: saline + alcohol 105 % of control and 111 % of control | dose: 3.5 mg/kg/injection, schedule: Q01DX009 (ip), vehicle: saline + Tween-80 + alcohol 102 % of control | dose: 3.5 mg/kg/injection, schedule: Q01DX009 (ip), vehicle: saline + alcohol 102 % of control and 103 % of control and 114 % of control | dose: 7.0 mg/kg/injection, schedule: Q01DX009 (ip), vehicle: saline + Tween-80 + alcohol 111 % of control | dose: 7.0 mg/kg/injection, schedule: Q01DX009 (ip), vehicle: saline + alcohol 101 % of control and 105 % of control and 114 % of control | dose: 14.0 mg/kg/injection, schedule: Q01DX009 (ip), vehicle: saline + Tween-80 + alcohol 116 % of control | dose: 14.0 mg/kg/injection, schedule: Q01DX009 (ip), vehicle: saline + alcohol 111 % of control and 113 % of control and 114 % of control | dose: 28.0 mg/kg/injection, schedule: Q01DX009 (ip), vehicle: saline + Tween-80 + alcohol 120 % of control | dose: 28.0 mg/kg/injection, schedule: Q01DX009 (ip), vehicle: saline + alcohol 111 % of control and 115 % of control and 121 % of control | dose: 56.0 mg/kg/injection, schedule: Q01DX009 (ip), vehicle: saline + Tween-80 + alcohol 116 % of control

O=C1C(Cl)=C(Nc2cccc3cc4ccccc4nc23)C(=O)c2ccccc21
inactive: [10] 104 % of control and 112 % of control | [11] 113 % of control and 114 % of control | dose: 20.0 mg/kg/injection, schedule: Q01DX009 (ip), vehicle: saline 104 % of control

COC1C(C)OC(O[C@@H]2C[C@@](C)(O)Cc3cc4c(c(O)c32)C(=O)c2c(O)cc3c(c2C4=O)O[C@@H]2O[C@@]3(C)[C@@H](O)[C@H](N(C)C)[C@H]2O)C(OC)C1(C)OC (some centres undefined)
inactive: dose: 3.12 mg/kg/injection, schedule: Q01DX009 (ip), vehicle: other 119 % of control

O=C1CCC(=O)C1
inactive: [4] 100 % of control | [5] 93 % of control | [6] 105 % of control

CC(C)(C)C[C](C)(c1ccccc1)[Sn]([CH3])([CH3])[CH3] (centres undefined)
inactive: [7] 94 % of control | [8] 102 % of control | [9] 102 % of control

N#CC(C(=O)C(=O)Nc1ccc(Cl)cc1Cl)c1c(Cl)cccc1Cl (centres undefined)
inactive: [12] 100 % of control | dose: 120.0 mg/kg/injection, schedule: Q01DX005 (ip), vehicle: saline with Tween-80 101 % of control

O=C(O)CS(=O)NN(c1ccccc1)c1ccccc1 (centres undefined)
inactive: [1] 102 % of control | [2] 102 % of control

CCOC(=O)C(C)(C(=O)c1ccccc1)C(=O)C(C)(C)C (centres undefined)
inactive: dose: 75.0 mg/kg/injection, schedule: Q01DX009 (ip), vehicle: saline with Tween-80 107 % of control | dose: 150.0 mg/kg/injection, schedule: Q01DX009 (ip), vehicle: saline with Tween-80 103 % of control | dose: 300.0 mg/kg/injection, schedule: Q01DX009 (ip), vehicle: saline with Tween-80 115 % of control

Cc1nc2c(Cl)cc(Cl)cc2c(=O)n1CC(=O)NNC(N)=S
inactive: [13] 97 % of control | [14] 94 % of control | [15] 93 % of control

COC1/C=C/OC2(C)Oc3c(C)c(O)c4c(O)c(c(/C=N/Nc5nc6c(N)ncnc6n5C5OC(CO)C(O)C5O)c(O)c4c3C2=O)NC(=O)C(C)=C/C=C/C(C)C(O)C(C)C(O)C(C)C(OC(C)=O)C1C (centres undefined)
inactive: [13] 104 % of control | [14] 99 % of control | [15] 113 % of control

Oc1ccccc1O.[O-]c1ccccc1[O-].[O-]c1ccccc1[O-].[O]=[V+2]
inactive: [10] 100 % of control | dose: 5.0 mg/kg/injection, schedule: Q04DX003 (ip), vehicle: saline 95 % of control | [11] 90 % of control | dose: 10.0 mg/kg/injection, schedule: Q04DX003 (ip), vehicle: saline 118 % of control | dose: 20.0 mg/kg/injection, schedule: Q04DX003 (ip), vehicle: saline 100 % of control

NC(CC1C(=O)Nc2ccccc21)C(=O)O (centres undefined)
inactive: dose: 50.0 mg/kg/injection, schedule: Q01DX005 (ip), vehicle: saline with Tween-80 104 % of control | dose: 100.0 mg/kg/injection, schedule: Q01DX005 (ip), vehicle: saline with Tween-80 103 % of control | dose: 200.0 mg/kg/injection, schedule: Q01DX005 (ip), vehicle: saline with Tween-80 103 % of control

O=C(O)CCCCC1SCC2NC(=O)NC21 (centres undefined)
inactive: [13] 100 % of control | [14] 108 % of control | [15] 108 % of control

CC(=O)OCc1c(COC(C)=O)c(-c2ccc(Cl)cc2)n2c1CCC2
inactive: [7] 118 % of control

O=C(O)C(CBr)CBr
inactive: dose: 25.0 mg/kg/injection, schedule: Q01DX009 (ip), vehicle: water 107 % of control | dose: 50.0 mg/kg/injection, schedule: Q01DX009 (ip), vehicle: water 106 % of control | dose: 100.0 mg/kg/injection, schedule: Q01DX009 (ip), vehicle: water 100 % of control

c1ccc2c(c1)NC(NC1Nc3ccccc3N1)N2
inactive: dose: 30.0 mg/kg/injection, schedule: Q01DX005 (ip), vehicle: saline with Tween-80 91 % of control | [12] 86 % of control and 97 % of control

Source: PubChem BioAssay AID330 (DTP/NCI, 2004)
